Target: T1, CCR2 (Homo sapiens, UniProt P41597)
T1 construct: Membranes were prepared from THP-1 cells; endogenous in cells; host or cells: THP-1 (human acute monocytic leukaemia cells), membrane preparation
T1 sequence (P41597 1-360 isoform P41597-2): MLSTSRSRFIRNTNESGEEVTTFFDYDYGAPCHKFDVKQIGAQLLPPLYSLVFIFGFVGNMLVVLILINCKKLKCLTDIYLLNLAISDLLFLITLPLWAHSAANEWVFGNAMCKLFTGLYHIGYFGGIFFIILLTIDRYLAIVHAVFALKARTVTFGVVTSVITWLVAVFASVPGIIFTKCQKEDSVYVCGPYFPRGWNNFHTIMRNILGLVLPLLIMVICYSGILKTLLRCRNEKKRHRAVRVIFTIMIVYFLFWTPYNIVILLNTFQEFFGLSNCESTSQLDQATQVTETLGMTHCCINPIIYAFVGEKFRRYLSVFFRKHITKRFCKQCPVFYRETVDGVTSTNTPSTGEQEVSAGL
Experiment: CCR2 receptor membrane binding assay ([125I]MCP-1, THP-1 membranes, SPA beads)
Details: THP-1 cell membranes; [125I]MCP-1 displacement; bound radioactivity after 8 h; read-out: hKi
Method: The above exemplary substances have been tested for binding to CCR2 using a binding assay as outlined herein below:
THP-1 cells (human acute monocytic leukaemia cells) were cultured under standardized conditions at 37° C. and 5% CO2 in a humidified incubator. THP-1 cells were cultivated in RPMI 1640 medium (Gibco 21875) containing 1% MEM-NEAA (Gibso 11140) 2 mM L-glutamine, 1.5 g/L sodium bicarbonate, 4.5 g/L glucose, 10 mM HEPES and 1.0 mM sodium pyruvate, 90%; 10% fetal calf serum (FCS Gibco 10500-064).
Membranes were prepared from THP-1 cells. THP-1 cells were centrifuged at 300×g at 4° C. for 10 min. The cell pellet was resuspended in Phosphate Buffer Saline (PBS, including 10 μM Pefabloc and a protease inhibitor mix ‘complete’, Boehringer Mannheim (1 tablet/50 ml)), to a concentration of […]. The membrane preparation was performed by disrupting the cells by nitrogen […] (at 50 bar, for 1 h) in a “Nitrogen Bombe” (Parr Instrument). Cell debris was removed by centrifugation (800×g at 4° C., 1 min). The supernatant was centrifuged at 80000×g, 4° C. for 30 min to sediment the cell membranes. Usually 50 mg of protein (Bradford assay) were yielded from 1×10E9 cells. The membranes were resuspended in 25 mM HEPES, 25 mM MgCl2, 1 mM CaCl2, 10% Glycerine for storage in aliquots at −80° C. in 25 mM HEPES, 25 mM MgCl2, 1 mM CaCl2, 10% Glycerine and stored at −80° C.
Perkin Elmer NEX 332 Jod 125 MCP-1, Stock: 2200 Ci/mmol solved in 2000 μl assay buffer, stored at −20° C. THP-1 membrane were adjusted with 25 mM HEPES, pH 7.2; 5 mM MgCl2; 0.5 mM CaCl2; 0.2% BSA assay buffer to a concentration of 2.5 μg/15 μl. Amersham Biosciences PVT-WGA Beads (RPNQ0001) were adjusted with assay buffer to a concentration of 0.24 mg/30 μl. For preparation of the membrane-bead-suspension membranes and beads were incubated for 30 min at RT under rotation (60 rpm) with a ratio of 1:2. Test compounds dissolved in 100% DMSO to a concentration of 10 mM and are further diluted with 100% DMSO to 1 mM. All additional compound dilutions were obtained with assay buffer, final 1% DMSO. Compounds, membrane-bead-suspension and [125I]MCP-1 (ca. 25000 cpm/10 μl) were incubated. Bound radioactivity was determined by scintillation counter after 8 h. Determination of affinity of test compounds (dissociation constant hKi) is calculated by iterative fitting of experimental data using the “easy sys” program, which is based on law of mass action (Schittkowski K. (1994), Numerische Mathematik, Vol. 68, 129-142).

Structure (SMILES) | Ki
COc1nnc(C(=O)N2CCC(N3CCC(N(C)S(C)(=O)=O)CC3)CC2)c(C)c1NCc1ccc(C(C)(C)C)cc1 [Example 1] | 60 nM
COc1nnc(C(=O)N2CCC(NC3CCOCC3OC)CC2)c(C)c1NCc1ccc(C(C)(C)C)cc1 (centres unmarked) [Example 2] | 40 nM
COc1nnc(C(=O)N2CCC(N[C@H]3CCOC[C@H]3OC)CC2)c(C)c1NC[C@H]1CCC[C@@H](c2ccccc2)C1 [Example 3] | 1 nM
COc1nnc(C(=O)N2CCC(N[C@H]3CCOC[C@H]3OC)CC2)c(C)c1N1CCc2ccc(C(F)(F)F)cc2C1 [Example 4] | 10 nM
COc1nnc(C(=O)N2CCC(N[C@H]3CCOC[C@H]3OC)CC2)c(C)c1NC[C@H]1CCC[C@@H](c2ccc(OC(F)(F)F)cc2)O1 [Example 5] | 3 nM
COc1nnc(C(=O)N2CCC(N[C@@H]3CCOC[C@@H]3OC)CC2)c(C)c1NC[C@H]1CCC[C@@H](c2ccc(C)cc2)O1 [Example 6] | 4 nM
COc1nnc(C(=O)N2CCC(N[C@H]3CCOC[C@H]3OC)CC2)c(C)c1NC[C@H]1CCC[C@@H](c2ccc(C(F)(F)F)cc2)O1 [Example 7] | 1 nM
COc1nnc(C(=O)N2CCC(N[C@@H]3CCOC[C@@H]3OC)CC2)c(C)c1NC[C@H]1CCC[C@@H](c2ccc(C(F)(F)F)cc2)O1 [Example 8] | 2 nM
COC1COCCC1NC1CCN(C(=O)c2nncc(NCc3ccc(C(C)(C)C)cc3)c2C)CC1 (centres unmarked) [Example 9] | 27 nM
CO[C@@H]1COCC[C@@H]1NC1CCN(C(=O)c2nncc(NC[C@H]3CCC[C@@H](c4ccccc4)C3)c2C)CC1 [Example 10] | 3 nM
CO[C@@H]1COCC[C@@H]1NC1CCN(C(=O)c2nncc(N3CCc4ccc(C(F)(F)F)cc4C3)c2C)CC1 [Example 11] | 16 nM
CO[C@@H]1COCC[C@@H]1NC1CCN(C(=O)c2nncc(NC[C@H]3CCC[C@@H](c4ccc(OC(F)(F)F)cc4)O3)c2C)CC1 [Example 12] | 0.7 nM
Cc1ccc([C@@H]2CCC[C@H](CNc3cnnc(C(=O)N4CCC(NC5CCOCC5F)CC4)c3C)O2)cc1 (some centres unmarked) [Example 13] | 35 nM
Cc1c(NC[C@H]2CCC[C@@H](c3ccc(OC(F)(F)F)cc3)O2)cnnc1C(=O)N1CCC(NC2CCOCC2F)CC1 (some centres unmarked) [Example 14] | 5 nM
CO[C@H]1COCC[C@H]1NC1CCN(C(=O)c2nncc(NC[C@H]3CCC[C@@H](c4ccc(C(F)(F)F)cc4)O3)c2C)CC1 [Example 15] | 6 nM
CO[C@@H]1COCC[C@@H]1NC1CCN(C(=O)c2nncc(NC[C@H]3CCC[C@@H](c4ccc(C(F)(F)F)cc4)O3)c2C)CC1 [Example 16] | 3 nM
CO[C@H]1COCC[C@H]1NC1CCN(C(=O)c2nncc(N3CCc4ccc(C(F)(F)F)cc4C3)c2C)CC1 [Example 17] | 73 nM
Cc1c(NC[C@H]2CCC[C@@H](c3ccccc3)C2)cnnc1C(=O)N1CCC(NC2CCOCC2F)CC1 (some centres unmarked) [Example 18] | 7 nM
Cc1c(NC[C@H]2CCC[C@@H](c3ccc(C(F)(F)F)cc3)O2)cnnc1C(=O)N1CCC(NC2CCOCC2F)CC1 (some centres unmarked) [Example 19] | 9 nM
Cc1c(N2CCc3ccc(C(F)(F)F)cc3C2)cnnc1C(=O)N1CCC(NC2CCOCC2F)CC1 (centres unmarked) [Example 20] | 54 nM
Cc1c(Nc2ccc(Cl)c(Cl)c2)cnnc1C(=O)N1CCC(NC2CCOCC2F)CC1 (centres unmarked) [Example 21] | 41 nM
CO[C@@H]1COCC[C@@H]1NC1CCN(C(=O)c2nncc(Nc3ccc(Cl)c(Cl)c3)c2C)CC1 [Example 22] | 4 nM
COC1COCCC1NC1CCN(C(=O)c2nnc(C)c(NCc3ccc(C(C)(C)C)cc3)c2C)CC1 (centres unmarked) [Example 23] | 128 nM

Reference: patent US9018212B2, “Pyridazine carboxamides as CCR2 receptor antagonists” (Boehringer Ingelheim International GmbH, priority 2010, dated 2015)
